Laboratory results from US20080176932A1, “Pharmaceutical Compositions Containing Baicalein And Baicalin With Synergistic Effect In Tumor Treatment” (priority 2005, published 2008).
Like-named read-outs stand apart in the source and are kept apart here.

Key:
[1] = system: Murine melanoma cell line B 16; experiment: Solid tumor transplant model, baicalein and scutellarin; format: in vivo, C57BL/6 female mice; settings: B16 mice, B 30 mg/kg i.p., day 1-10
Procedure: C57BL/6 female mice (weight approximately 20 g) were used in this study. Murine melanoma cell line B 16 cells, 2×10^6 tumor cells were implanted s.c. into the armpit of each mice after two passenges in vitro cultured. On the next day after implantation, mice were randomly grouped at 10 per group and received 0.1ml/10 g weight of the drugs. […] The number of mice of each group was 10. Mice were weighed before and post the treatment. Animals were killed on day 15, and the tumors were removed and weighted.

[2] = system: Human gastric cancer cell line MKN28; experiment: MTT growth inhibition, baicalein and scutellarin single or combination; format: cell-based
[3] = system: Human hung cancer cell line A549; experiment: as above; format: cell-based
[4] = system: Human colon cancer cell line HCT116; experiment: MTT growth inhibition, baicalein and baicalin single or combination; format: cell-based
Source text: Human colon cancer cell line HCT116—Table 2;

[5] = system: Human prostate cancer cell line PC3
[6] = system: Human esophagus cancer cell line TE2; experiment: MTT growth inhibition, baicalein and scutellarin single or combination; format: cell-based
Procedure: (§1) Cells were seeded onto 96-well plate at 5×10^3 cells/well, and grown in culture medium containing 10% fetal bovine serum (FBS). […] The viable cell growth was determined by MTT assay after 72-h continuous exposure.
(§2) A CI below 1 is an indication of synergy, while a CI equal to 1 represents addition, and a CI above 1 indicates antagonism.

[7] = system: Human breast cancer cell line MCF-7; experiment: as above; format: cell-based
Procedure: as §1, §2

[8] = system: Human prostate cancer cell line PC3; experiment: as above; format: cell-based
Procedure: as §1, §2

[9] = system: human liver cancer cell line HepG2; experiment: as above; format: cell-based
[10] = system: Human hung cancer cell line A549; experiment: MTT growth inhibition, baicalein and baicalin single or combination; format: cell-based
Source text: Human hung cancer cell line A549—Table 3;

[11] = system: Human leukemia cell line HL60; experiment: as above; format: cell-based
Source text: Human leukemia cell line HL60—Table 8.

[12] = system: Murine melanoma cell line B 16; experiment: Solid tumor transplant model, baicalein and baicalin; format: in vivo; settings: B16 mice, B 30 mg/kg i.p., day 1-10
Procedure: C57BL/6 female mice (weight approximately 20 g) were used in this study. Murine melanoma cell line B 16 cells, 2×10^6 tumor cells were implanted s.c. into the armpit of each mice after two passenges in vitro cultured. On the next day after implantation, mice were randomly grouped at 10 per group and received 0.1 ml/10 g weight of the drugs. […] The number of mice of each group was 10. Mice were weighed before and post the treatment. Animals were killed on day 15, and the tumors were removed and weighted.

[13] = system: Human breast cancer cell line MCF-7
L1210 cells [14] = format: in vivo; settings: B 30 mg/kg i.p., day 1-10
Procedure: (§3) L1210 cells on the growth phase were injected at 1×10^5 cells via I.P. into BDF1 female mice (weight approximately 20 g). The next day of implantation, mice were grouped, and received an injection of 0.1 ml/10 g weight of the drug. […] The number of mice of each group was 10. Mice were weighed before and after the treatment. Survival time of each mouse was recorded. The results of changes in increasing of life span of mice were used in assessment of response. The increase of life span was determined as; increase of life span rate=(median survival time of treated animals/median survival time of control animals−1)×100%, the data were analyzed by t-test.

[15] = system: Human esophagus cancer cell line TE2
L1210 cells [16] = format: in vivo; settings: B 30 mg/kg i.p., day 1-10; remark: listed apart in the source
Procedure: as §3

[17] = system: human liver cancer cell line HepG2; experiment: MTT growth inhibition, baicalein and baicalin single or combination; format: cell-based
Source text: The results of experiments with human liver cancer cell line HepG2 are illustrated in Table 1;

[18] = system: Human gastric cancer cell line MKN28; experiment: as above; format: cell-based
Source text: Human gastric cancer cell line MKN28—Table 4;

[19] = system: Human leukemia cell line HL60; experiment: MTT growth inhibition, baicalein and scutellarin single or combination; format: cell-based
[20] = system: Human colon cancer cell line HCT116; experiment: as above; format: cell-based

O=c1cc(-c2ccccc2)oc2cc(O)c(O)c(O)c12 [B, baicalein]
Final Tumor WT. (g) Mean ± SD ([1]; day 15): 1.72 ± 0.09 g
Tumor Growth Inhibition % ([1]; day 15): 21.1%
Number of mice through 15 days/total number [1]: 10/10
Weight Change % [1]: <5%
Inhibition of cell growth (%) ([2]; single dose 2.5 μm): 16.5 ± 1.1%
Inhibition of cell growth (%) ([2]; single dose 5 μm): 27.7 ± 2.1%
Inhibition of cell growth (%) ([2]; single dose 10 μm): 42.8 ± 2.3%
Inhibition of cell growth (%) ([2]; single dose 20 μm): 65.6 ± 3%
Inhibition of cell growth (%) ([2]; single dose 40 μm): 80.21 ± 2.5%
Inhibition of cell growth (%) ([3]; single dose 2.5 μm): 10.55 ± 1.2%
Inhibition of cell growth (%) ([3]; single dose 5 μm): 17.19 ± 2.2%
Inhibition of cell growth (%) ([3]; single dose 10 μm): 40.8 ± 3.2%
Inhibition of cell growth (%) ([3]; single dose 20 μm): 62.5 ± 2%
Inhibition of cell growth (%) ([3]; single dose 40 μm): 90.18 ± 2.1%
Inhibition of cell growth (%) ([4]; single dose 2.5 μm): 5.8 ± 2%
Inhibition of cell growth (%) ([4]; single dose 5 μm): 20.5 ± 3%
Inhibition of cell growth (%) ([4]; single dose 10 μm): 29.2 ± 3%
Inhibition of cell growth (%) ([4]; single dose 20 μm): 41 ± 2.7%
Inhibition of cell growth (%) ([4]; single dose 40 μm): 89.15 ± 3%
Inhibition of cell growth (%) ([5]; single dose 2.5 μm): 7.2 ± 5%
Inhibition of cell growth (%) ([5]; single dose 5 μm): 22.8 ± 6%
Inhibition of cell growth (%) ([5]; single dose 10 μm): 50.9 ± 5%
Inhibition of cell growth (%) ([5]; single dose 20 μm): 69.9 ± 5%
Inhibition of cell growth (%) ([5]; single dose 40 μm): 92.9 ± 7%
Inhibition of cell growth (%) ([6]; single dose 2.5 μm): 5 ± 2%
Inhibition of cell growth (%) ([6]; single dose 5 μm): 16.8 ± 1.2%
Inhibition of cell growth (%) ([6]; single dose 10 μm): 38.4 ± 2.1%
Inhibition of cell growth (%) ([6]; single dose 20 μm): 66.85 ± 2%
Inhibition of cell growth (%) ([6]; single dose 40 μm): 83.1 ± 2.1%
Inhibition of cell growth (%) ([7]; single dose 2.5 μm): 0.8 ± 2%
Inhibition of cell growth (%) ([7]; single dose 5 μm): 13.02 ± 2.5%
Inhibition of cell growth (%) ([7]; single dose 10 μm): 51.02 ± 2.2%
Inhibition of cell growth (%) ([7]; single dose 20 μm): 64.35 ± 2.2%
Inhibition of cell growth (%) ([7]; single dose 40 μm): 93 ± 2.5%
Inhibition of cell growth (%) ([8]; single dose 2.5 μm): 7.2 ± 5%
Inhibition of cell growth (%) ([8]; single dose 5 μm): 22.8 ± 6%
Inhibition of cell growth (%) ([8]; single dose 10 μm): 50.9 ± 5%
Inhibition of cell growth (%) ([8]; single dose 20 μm): 69.9 ± 5%
Inhibition of cell growth (%) ([8]; single dose 40 μm): 92.9 ± 7%
Inhibition of cell growth (%) ([9]; single dose 2.5 μm): 7.35 ± 2.2%
Inhibition of cell growth (%) ([9]; single dose 5 μm): 32.7 ± 2.3%
Inhibition of cell growth (%) ([9]; single dose 10 μm): 49.8 ± 2.1%
Inhibition of cell growth (%) ([9]; single dose 20 μm): 58.5 ± 1.2%
Inhibition of cell growth (%) ([9]; single dose 40 μm): 90.18 ± 2.5%
Inhibition of cell growth (%) ([10]; single dose 2.5 μm): 13.5 ± 4%
Inhibition of cell growth (%) ([10]; single dose 5 μm): 17.18 ± 3%
Inhibition of cell growth (%) ([10]; single dose 10 μm): 39.2 ± 2%
Inhibition of cell growth (%) ([10]; single dose 20 μm): 63.85 ± 3.2%
Inhibition of cell growth (%) ([10]; single dose 40 μm): 96.41 ± 2%
Inhibition of cell growth (%) ([11]; single dose 2.5 μm): 6.5 ± 2%
Inhibition of cell growth (%) ([11]; single dose 5 μm): 21.8 ± 3%
Inhibition of cell growth (%) ([11]; single dose 10 μm): 41.32 ± 2.7%
Inhibition of cell growth (%) ([11]; single dose 20 μm): 67.6 ± 3.2%
Inhibition of cell growth (%) ([11]; single dose 40 μm): 86.77 ± 3.3%
Final Tumor WT. (g) Mean ± SD ([12]; day 15): 1.72 ± 0.09 g
Tumor Growth Inhibition % ([12]; day 15): 21.1%
Weight Change % [12]: <5%
Inhibition of cell growth (%) ([13]; single dose 2.5 μm): 7.2 ± 2%
Inhibition of cell growth (%) ([13]; single dose 5 μm): 27.55 ± 2%
Inhibition of cell growth (%) ([13]; single dose 10 μm): 51 ± 3%
Inhibition of cell growth (%) ([13]; single dose 20 μm): 71.77 ± 2.5%
Inhibition of cell growth (%) ([13]; single dose 40 μm): 90.5 ± 2.5%
Number of mice Through surviving 15 days/total number (L1210 cells [14]): 10/10
ILS(%) increase of life span (L1210 cells [14]; L1210 mice): 31.6%
Inhibition of cell growth (%) ([15]; single dose 2.5 μm): 5.5 ± 1%
Inhibition of cell growth (%) ([15]; single dose 5 μm): 17.2 ± 2.8%
Inhibition of cell growth (%) ([15]; single dose 10 μm): 28 ± 2%
Inhibition of cell growth (%) ([15]; single dose 20 μm): 57.9 ± 2.1%
Inhibition of cell growth (%) ([15]; single dose 40 μm): 85.2 ± 2.3%
Number of mice Surviving through 15 days/total number (L1210 cells [16]): 10/10
ILS(%) increase of life span (L1210 cells [16]; L1210 mice): 31.6%
Inhibition of cell growth (%) ([17]; single dose 2.5 μm): 7.4 ± 2%
Inhibition of cell growth (%) ([17]; single dose 5 μm): 34.93 ± 3%
Inhibition of cell growth (%) ([17]; single dose 10 μm): 50.2 ± 3%
Inhibition of cell growth (%) ([17]; single dose 20 μm): 58.5 ± 2.5%
Inhibition of cell growth (%) ([17]; single dose 40 μm): 89.18 ± 2%
Inhibition of cell growth (%) ([18]; single dose 2.5 μm): 7.7 ± 3%
Inhibition of cell growth (%) ([18]; single dose 5 μm): 37.11 ± 2.9%
Inhibition of cell growth (%) ([18]; single dose 10 μm): 53 ± 3.2%
Inhibition of cell growth (%) ([18]; single dose 20 μm): 58 ± 2%
Inhibition of cell growth (%) ([18]; single dose 40 μm): 77 ± 3%
Inhibition of cell growth (%) ([19]; single dose 2.5 μm): 7.5 ± 2.7%
Inhibition of cell growth (%) ([19]; single dose 5 μm): 22.7 ± 2.2%
Inhibition of cell growth (%) ([19]; single dose 10 μm): 41.8 ± 2.7%
Inhibition of cell growth (%) ([19]; single dose 20 μm): 60.6 ± 3.2%
Inhibition of cell growth (%) ([19]; single dose 40 μm): 89.18 ± 2.1%
Inhibition of cell growth (%) ([20]; single dose 2.5 μm): 5.8 ± 2%
Inhibition of cell growth (%) ([20]; single dose 5 μm): 10.5 ± 2.3%
Inhibition of cell growth (%) ([20]; single dose 10 μm): 29.2 ± 2.7%
Inhibition of cell growth (%) ([20]; single dose 20 μm): 47 ± 3.1%
Inhibition of cell growth (%) ([20]; single dose 40 μm): 91.15 ± 2.5%
